# Measurements reported in patent US9085520B2, “Composition for treating diabetes and metabolic diseases and a preparation method thereof” (KAOHSIUNG MEDICAL UNIVERSITY, priority 2011, dated 2015).
# Several values for one entry are separate records, joined by “and”; a condition that tells them apart may be missing. Equal entries are not always repeated. Entries after “also recorded” stand apart in the source; their conditions may differ.
# Assays:
# 3T3-L1 adipocytes [1] = assay: adipocyte death / toxicity to adipocytes; conditions: 30 μg/ml, matured 3T3-L1 adipocytes, 24 hours
# 3T3-L1 adipocytes [2] = assay: glucose consumption (remaining glucose) in culture medium of 3T3-L1 adipocytes; assay type: cell-based; conditions: 30 μg/ml; for remaining glucose concentration in culture medium after 24 hours: culture medium of 3T3-L1 adipocytes after 24 hours, means ± SD, N = 3, control 310 ± 4.0; for glucose absorption activity of adipocytes 3T3-L1 (anti-hyperglycemic ability): FIG. 1, medium glucose 300 mg/dl, remaining glucose after 24 hours
# Procedure: After precursor adipocytes 3T3-L1 were induced as the matured adipocytes, culture medium with glucose (concentration of 300 mg/dl) and drugs were added, and the concentration of the remaining glucose in the culture medium were measured after 24 hours.
# Adipose tissues are major sites for postprandial glucose uptake. Therefore, in vitro anti-diabetic screening model based on measuring glucose consumption after 24 hours in culture medium of 3T3-L1 adipocytes was developed. […] Accordingly, 60 chalcone derivatives with and without substitutions on A-ring were examined in our developed model. […] Structure-activity relationship (SAR) analyses data are also determined.
SMILES,remaining glucose concentration in culture medium after 24 hours (3T3-L1 adipocytes [2]),other results
"COc1ccc(/C=C/C(=O)c2ccccc2O)cc1 [Compound 1, (E)-1-(2-hydroxyphenyl)-3-(4-methoxyphenyl)prop-2-en-1-one]",283 ± 21.4 mg/dL,adipocyte death / toxicity to adipocytes (3T3-L1 adipocytes [1]): non-toxic
"O=C(/C=C/c1ccccc1)c1ccc(O)cc1O [Compound 2, (E)-1-(2,4-dihydroxyphenyl)-3-phenylprop-2-en-1-one]",273 ± 2.9 mg/dL,adipocyte death / toxicity to adipocytes (3T3-L1 adipocytes [1]): lead to adipocyte death; also recorded: toxic; glucose absorption activity of adipocytes 3T3-L1 (anti-hyperglycemic ability) (3T3-L1 adipocytes [2]): not significantly better than that in compound 9
"O=C(/C=C/c1ccc(OCc2ccccc2)cc1)c1ccc(O)cc1O [Compound 3, (E)-3-(4-(benzyloxy)phenyl)-1-(2,4-dihydroxyphenyl)prop-2-en-1-one]",249 ± 12.2 mg/dL,adipocyte death / toxicity to adipocytes (3T3-L1 adipocytes [1]): lead to adipocyte death; also recorded: toxic; glucose absorption activity of adipocytes 3T3-L1 (anti-hyperglycemic ability) (3T3-L1 adipocytes [2]): not significantly better than that in compound 9
"COc1cccc(/C=C/C(=O)c2ccccc2O)c1 [Compound 4, (E)-1-(2-hydroxyphenyl)-3-(3-methoxyphenyl)prop-2-en-1-one]",264 ± 7.8 mg/dL,adipocyte death / toxicity to adipocytes (3T3-L1 adipocytes [1]): non-toxic
"COc1ccc(/C=C/C(=O)c2ccc(O)cc2O)cc1 [Compound 5, (E)-1-(2,4-dihydroxyphenyl)-3-(4-methoxyphenyl)-prop-2-en-1-one]",248 ± 0.4 mg/dL,adipocyte death / toxicity to adipocytes (3T3-L1 adipocytes [1]): lead to adipocyte death; also recorded: toxic; glucose absorption activity of adipocytes 3T3-L1 (anti-hyperglycemic ability) (3T3-L1 adipocytes [2]): not significantly better than that in compound 9
"COc1ccc(/C=C/C(=O)c2ccccc2F)cc1 [Compound 28, (E)-1-(2-fluorophenyl)-3-(4-methoxyphenyl)prop-2-en-1-one]",259 ± 0.3 mg/dL,–
"O=C(/C=C/c1ccc(O)cc1)c1ccccc1 [Compound 29, (E)-3-(4-hydroxyphenyl)-1-phenylprop-2-en-1-one]",263 ± 5.6 mg/dL,–
"O=C(/C=C/c1cccc(OCc2ccccc2)c1)c1ccccc1 [Compound 30, (E)-3-(3-(benzyloxy)phenyl)-1-phenylprop-2-en-1-one]",285 ± 8.2 mg/dL,–
"O=C(/C=C/c1ccc(OCc2ccccc2)cc1)c1ccccc1 [Compound 31, (E)-3-(4-(benzyloxy)phenyl)-1-phenylprop-2-en-1-one]",274 ± 13.0 mg/dL,–
"O=C(/C=C/c1ccc2c(c1)OCO2)c1ccccc1 [Compound 32, (E)-3-(benzo[d][1,3]dioxol-5-yl)-1-phenylprop-2-en-1-one]",252 ± 18.1 mg/dL,–
"O=C(/C=C/c1ccc2c(c1)OCO2)c1ccccc1O [Compound 33, (E)-3-(benzo[d][1,3]dioxol-5-yl)-1-(2-hydroxyphenyl)prop-2-en-1-one]",279 ± 7.6 mg/dL,–
"O=C(/C=C/c1cccc(OCc2ccccc2)c1)c1ccc(O)cc1O [Compound 34, (E)-3-(3-(benzyloxy)phenyl)-1-(2,4-dihydroxyphenyl)prop-2-en-1-one]",283 ± 2.6 mg/dL,–
"COc1cccc(/C=C/C(=O)c2cc(F)ccc2O)c1 [Compound 35, (E)-1-(5-fluoro-2-hydroxyphenyl)-3-(3-methoxyphenyl)prop-2-en-1-one]",297 ± 9.3 mg/dL,–
"COc1ccc(/C=C/C(=O)c2cc(Cl)ccc2O)cc1 [Compound 37, (E)-1-(5-chloro-2-hydroxyphenyl)-3-(4-methoxyphenyl)prop-2-en-1-one]",282 ± 16.4 mg/dL,–
"COc1cccc(/C=C/C(=O)c2cc(Cl)ccc2O)c1 [Compound 38, (E)-1-(5-chloro-2-hydroxyphenyl)-3-(3-methoxyphenyl)prop-2-en-1-one]",266 ± 23.3 mg/dL,–
"COc1cccc(/C=C/C(=O)c2ccccc2F)c1 [Compound 39, (E)-1-(2-fluorophenyl)-3-(3-methoxyphenyl)prop-2-en-1-one]",285 ± 4.4 mg/dL,–
"COc1ccc(/C=C/C(=O)c2cccc(F)c2)cc1 [Compound 40, (E)-1-(3-fluorophenyl)-3-(4-methoxyphenyl)prop-2-en-1-one]",298 ± 15.5 mg/dL,–
"COc1cccc(/C=C/C(=O)c2cccc(F)c2)c1 [Compound 41, (E)-1-(3-fluorophenyl)-3-(3-methoxyphenyl)prop-2-en-1-one]",282 ± 10.1 mg/dL,–
"COc1cccc(/C=C/C(=O)c2ccc(F)cc2)c1 [Compound 42, (E)-1-(4-fluorophenyl)-3-(3-methoxyphenyl)prop-2-en-1-one]",285 ± 1.6 mg/dL,–

SMILES,remaining glucose concentration in culture medium after 24 hours (3T3-L1 adipocytes [2]),other results
"O=C(/C=C/c1ccccc1)c1cccc(Cl)c1 [Compound 43, (E)-1-(3-chlorophenyl)-3-phenylprop-2-en-1-one]",291 ± 9.2 mg/dL,–
"COc1cccc(/C=C/C(=O)c2cccc(Cl)c2)c1 [Compound 44, (E)-1-(3-chlorophenyl)-3-(3-methoxyphenyl)prop-2-en-1-one]",287 ± 13.4 mg/dL,–
"COc1ccc(/C=C/C(=O)c2cccc(Cl)c2)cc1 [Compound 45, (E)-1-(3-chlorophenyl)-3-(4-methoxyphenyl)prop-2-en-1-one]",255 ± 27.1 mg/dL,–
"O=C(/C=C/c1ccccc1)c1ccc(Cl)cc1 [Compound 46, (E)-1-(4-chlorophenyl)-3-phenylprop-2-en-1-one]",295 ± 8.8 mg/dL,–
"COc1ccc(/C=C/C(=O)c2ccc(Cl)cc2)cc1 [Compound 47, (E)-1-(4-chlorophenyl)-3-(4-methoxyphenyl)prop-2-en-1-one]",293 ± 7.8 mg/dL,–
"O=C(/C=C/c1ccccc1)c1ccccc1Br [Compound 48, (E)-1-(2-bromophenyl)-3-phenylprop-2-en-1-one]",249 ± 20.8 mg/dL,–
"O=C(/C=C/c1ccccc1)c1cccc(Br)c1 [Compound 49, (E)-1-(3-bromophenyl)-3-phenylprop-2-en-1-one]",299 ± 7.3 mg/dL,–
"O=C(/C=C/c1ccccc1)c1ccc(Br)cc1 [Compound 50, (E)-1-(4-bromophenyl)-3-phenylprop-2-en-1-one]",295 ± 5.8 mg/dL,–
"O=C(/C=C/c1ccc(OCc2ccccc2)cc1)c1ccccc1I [Compound 53, (E)-3-(4-(benzyloxy)phenyl)-1-(2-iodophenyl)prop-2-en-1-one]",249 ± 3.6 mg/dL,–
"O=C(/C=C/c1cccc(OCc2ccccc2)c1)c1ccccc1I [Compound 54, (E)-3-(3-(benzyloxy)phenyl)-1-(2-iodophenyl)prop-2-en-1-one]",238 mg/dL and 238 ± 1.1 mg/dL,–
"O=C(/C=C/c1ccccc1)c1cccc(I)c1 [Compound 55, (E)-1-(3-iodophenyl)-3-phenylprop-2-en-1-one]",294 ± 7.3 mg/dL,–
"COc1ccc(/C=C/C(=O)c2cccc(I)c2)cc1 [Compound 56, (E)-1-(3-iodophenyl)-3-(4-methoxyphenyl)prop-2-en-1-one]",233 mg/dL and 233 ± 3.5 mg/dL,–
"COc1cccc(/C=C/C(=O)c2cccc(I)c2)c1 [Compound 57, (E)-1-(3-iodophenyl)-3-(3-methoxyphenyl)prop-2-en-1-one]",246 ± 11.3 mg/dL,–
"O=C(/C=C/c1ccccc1)c1ccc(I)cc1 [Compound 58, (E)-1-(4-iodophenyl)-3-phenylprop-2-en-1-one]",292 ± 5.3 mg/dL,–
"COc1ccc(/C=C/C(=O)c2ccc(I)cc2)cc1 [Compound 59, (E)-1-(4-iodophenyl)-3-(4-methoxyphenyl)prop-2-en-1-one]",299 ± 3.8 mg/dL,–
"COc1cccc(/C=C/C(=O)c2ccc(I)cc2)c1 [Compound 60, (E)-1-(4-iodophenyl)-3-(3-methoxyphenyl)prop-2-en-1-one]",274 ± 22.5 mg/dL,–
"CCc1ccc(CCOc2ccc(CC3SC(=O)NC3=O)cc2)nc1 (centres unmarked) [Pioglitazone, pioglitazone, reference compound]",230 ± 13.5 mg/dL,remaining glucose concentration in culture medium after 24 hours (3T3-L1 adipocytes [2]; listed as pioglitazone): 230 mg/dL
"CN(CCOc1ccc(CC2SC(=O)NC2=O)cc1)c1ccccn1 (centres unmarked) [Rosiglitazone, rosiglitazone, reference compound]",263 ± 23.9 mg/dL,remaining glucose concentration in culture medium after 24 hours (3T3-L1 adipocytes [2]; listed as rosiglitazone): 263 mg/dL
